In US20090036448A1, “PYRIMIDINE DERIVATIVES AND METHODS OF TREATMENT RELATED TO THE USE THEREOF” (TAISHO PHARMECUTICAL CO., LTD., priority 2004, published 2009):

Molecular target: MCH receptor (Homo sapiens, UniProt Q99705)
Assay: Receptor binding assay with Radiolabelled MCH Ligand
Parameters: expressed in transfected cells; host or cells: 293 cells (human kidney, ATCC), transient transfection; crude membranes
Details: class by percent of control at 10^-7 M or IC50
Procedure, shortened: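 This was a filtration radioligand displacement assay: compounds, first tested at 1 and 0.1 μM and then over a range, inhibited binding of a labelled MCH ligand to transfected 293-cell membranes at room temperature for 60–120 min. Specific binding excluded a cold-MCH nonspecific signal. Ki was derived from IC50 via Cheng-Prusoff, using an independently measured KD.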

Sequence of MCH receptor (Q99705 whole entry): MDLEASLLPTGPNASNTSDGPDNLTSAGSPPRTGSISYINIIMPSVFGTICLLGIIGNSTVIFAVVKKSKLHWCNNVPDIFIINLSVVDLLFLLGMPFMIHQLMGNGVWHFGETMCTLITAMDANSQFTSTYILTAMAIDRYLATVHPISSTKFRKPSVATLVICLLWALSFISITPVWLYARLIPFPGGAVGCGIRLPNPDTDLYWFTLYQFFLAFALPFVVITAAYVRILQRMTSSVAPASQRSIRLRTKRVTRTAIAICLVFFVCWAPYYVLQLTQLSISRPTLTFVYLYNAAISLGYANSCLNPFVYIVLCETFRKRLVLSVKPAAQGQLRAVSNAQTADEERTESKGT

| SMILES | class |
| --- | --- |
| Cc1nc(N[C@H]2CC[C@@H](NCCOc3c(F)c(F)c(F)c(F)c3F)CC2)cc(N(C)C)n1 [compound 389] | 3 (Class 3: The value of percent of control at 10^−7 M was more than 60% or the value of IC50 was more than 200 nM.) |
| COc1ccc(CCN[C@H]2CC[C@@H](Nc3cc(N(C)C)nc(C)n3)CC2)cc1OC [compound 390] | 3 (Class 3: The value of percent of control at 10^−7 M was more than 60% or the value of IC50 was more than 200 nM.) |
| Cc1nc(N[C@H]2CC[C@@H](NCCSc3ccccc3)CC2)cc(N(C)C)n1 [compound 391] | 3 (Class 3: The value of percent of control at 10^−7 M was more than 60% or the value of IC50 was more than 200 nM.) |
| Cc1nc(N[C@H]2CC[C@@H](NCc3cccc4c3-c3ccccc3C4=O)CC2)cc(N(C)C)n1 [compound 392] | 3 (Class 3: The value of percent of control at 10^−7 M was more than 60% or the value of IC50 was more than 200 nM.) |
| Cc1nc(N[C@H]2CC[C@@H](NCc3ccc(OC(F)(F)F)cc3)CC2)cc(N(C)C)n1 [compound 393] | 3 (Class 3: The value of percent of control at 10^−7 M was more than 60% or the value of IC50 was more than 200 nM.) |
| Cc1nc(N[C@H]2CC[C@@H](NCc3ccc(F)cc3C(F)(F)F)CC2)cc(N(C)C)n1 [compound 394] | 3 (Class 3: The value of percent of control at 10^−7 M was more than 60% or the value of IC50 was more than 200 nM.) |
| Cc1nc(N[C@H]2CC[C@@H](NCCc3ccc(F)cc3)CC2)cc(N(C)C)n1 [compound 395] | 3 (Class 3: The value of percent of control at 10^−7 M was more than 60% or the value of IC50 was more than 200 nM.) |
| CCCCCCCOc1ccc(CN[C@H]2CC[C@@H](Nc3cc(N(C)C)nc(C)n3)CC2)cc1 [compound 396] | 3 (Class 3: The value of percent of control at 10^−7 M was more than 60% or the value of IC50 was more than 200 nM.) |
| CCCCCc1ccc(CN[C@H]2CC[C@@H](Nc3cc(N(C)C)nc(C)n3)CC2)cc1 [compound 397] | 3 (Class 3: The value of percent of control at 10^−7 M was more than 60% or the value of IC50 was more than 200 nM.) |
| Cc1nc(N[C@H]2CC[C@@H](NCC3CCCC3)CC2)cc(N(C)C)n1 [compound 398] | 3 (Class 3: The value of percent of control at 10^−7 M was more than 60% or the value of IC50 was more than 200 nM.) |
| CCCCCCCCCc1ccc(CN[C@H]2CC[C@@H](Nc3cc(N(C)C)nc(C)n3)CC2)cc1 [compound 399] | 3 (Class 3: The value of percent of control at 10^−7 M was more than 60% or the value of IC50 was more than 200 nM.) |
| Cc1nc(N[C@H]2CC[C@@H](NCCOc3ccc(C(C)(C)C)cc3)CC2)cc(N(C)C)n1 [compound 400] | 3 (Class 3: The value of percent of control at 10^−7 M was more than 60% or the value of IC50 was more than 200 nM.) |
| Cc1nc(N[C@H]2CC[C@@H](NCc3ccc(F)c(Cl)c3)CC2)cc(N(C)C)n1 [compound 401] | 3 (Class 3: The value of percent of control at 10^−7 M was more than 60% or the value of IC50 was more than 200 nM.) |
| Cc1nc(N[C@H]2CC[C@@H](NCCC3CCCC3)CC2)cc(N(C)C)n1 [compound 402] | 3 (Class 3: The value of percent of control at 10^−7 M was more than 60% or the value of IC50 was more than 200 nM.) |
| Cc1nc(N[C@H]2CC[C@@H](NCCCc3ccccc3)CC2)cc(N(C)C)n1 [compound 403] | 3 (Class 3: The value of percent of control at 10^−7 M was more than 60% or the value of IC50 was more than 200 nM.) |
| Cc1nc(N[C@H]2CC[C@@H](NC[C@H](Cc3ccccc3)NS(=O)(=O)c3cccc4ccccc34)CC2)cc(N(C)C)n1 [compound 404] | 3 (Class 3: The value of percent of control at 10^−7 M was more than 60% or the value of IC50 was more than 200 nM.) |
| Cc1nc(N[C@H]2CC[C@@H](NCc3ccc(SC(F)(F)F)cc3)CC2)cc(N(C)C)n1 [compound 405] | 3 (Class 3: The value of percent of control at 10^−7 M was more than 60% or the value of IC50 was more than 200 nM.) |
| Cc1nc(N[C@H]2CC[C@@H](NCCc3ccccc3Br)CC2)cc(N(C)C)n1 [compound 406] | 3 (Class 3: The value of percent of control at 10^−7 M was more than 60% or the value of IC50 was more than 200 nM.) |
| Cc1nc(N[C@H]2CC[C@@H](NCc3cc(C(C)(C)C)nn3Cc3ccccc3)CC2)cc(N(C)C)n1 [compound 407] | 3 (Class 3: The value of percent of control at 10^−7 M was more than 60% or the value of IC50 was more than 200 nM.) |
| Cc1nc(N[C@H]2CC[C@@H](NCC(C)(C)Oc3ccc(Cl)cc3)CC2)cc(N(C)C)n1 [compound 408] | 3 (Class 3: The value of percent of control at 10^−7 M was more than 60% or the value of IC50 was more than 200 nM.) |
| Cc1nc(N[C@H]2CC[C@@H](NCc3cc(C(C)(C)C)nn3Cc3ccc(Cl)cc3Cl)CC2)cc(N(C)C)n1 [compound 409] | 3 (Class 3: The value of percent of control at 10^−7 M was more than 60% or the value of IC50 was more than 200 nM.) |
| Cc1nc(N[C@H]2CC[C@@H](NCc3cnn(C)c3Cl)CC2)cc(N(C)C)n1 [compound 410] | 3 (Class 3: The value of percent of control at 10^−7 M was more than 60% or the value of IC50 was more than 200 nM.) |
| Cc1nc(N[C@H]2CC[C@@H](NC(=O)NCc3ccccc3Cl)CC2)cc(N(C)C)n1 [compound 412] | 3 (Class 3: The value of percent of control at 10^−7 M was more than 60% or the value of IC50 was more than 200 nM.) |
| Cc1nc(N[C@H]2CC[C@@H](NC(=O)NCc3ccc(F)cc3)CC2)cc(N(C)C)n1 [compound 413] | 3 (Class 3: The value of percent of control at 10^−7 M was more than 60% or the value of IC50 was more than 200 nM.) |
| Cc1nc(N[C@H]2CC[C@@H](NC(=O)NC(c3ccccc3)c3ccccc3)CC2)cc(N(C)C)n1 [compound 414] | 3 (Class 3: The value of percent of control at 10^−7 M was more than 60% or the value of IC50 was more than 200 nM.) |
| Cc1nc(N[C@H]2CC[C@@H](NC(=O)Nc3c(C)cc(Br)cc3C)CC2)cc(N(C)C)n1 [compound 416, N-(4-bromo-2,6-dimethylphenyl)-N′-(cis-4-{[6-(dimethylamino)-2-methylpyrimidin-4-yl]amino}cyclohexyl)urea] | 1 (Class 1: The value of percent of control at 10^−7 M was less than 40% or the value of IC50 was less than 50 nM.) |
| Cc1cc(C)c(NC(=O)N[C@H]2CC[C@@H](Nc3cc(N(C)C)nc(C)n3)CC2)c(C)c1 [compound 417] | 3 (Class 3: The value of percent of control at 10^−7 M was more than 60% or the value of IC50 was more than 200 nM.) |
| Cc1nc(N[C@H]2CC[C@@H](NC(=O)Nc3ccc(Cl)cc3C)CC2)cc(N(C)C)n1 [compound 418, N-(4-chloro-2-methylphenyl)-N′-(cis-4-{[6-(dimethylaminio)-2-methylpyrimidin-4-yl]amino}cyclohexyl)urea] | 3 (Class 3: The value of percent of control at 10^−7 M was more than 60% or the value of IC50 was more than 200 nM.) |
| CCc1cccc(C(C)C)c1NC(=O)N[C@H]1CC[C@@H](Nc2cc(N(C)C)nc(C)n2)CC1 [compound 419] | 3 (Class 3: The value of percent of control at 10^−7 M was more than 60% or the value of IC50 was more than 200 nM.) |
| Cc1nc(N[C@H]2CC[C@@H](NC(=O)Nc3ccc(Br)cc3C)CC2)cc(N(C)C)n1 [compound 420] | 3 (Class 3: The value of percent of control at 10^−7 M was more than 60% or the value of IC50 was more than 200 nM.) |
